# Measured values reported in patent publication US20150111835A1, “MODIFIED PEPTIDES AND THEIR USE FOR TREATING AUTOIMMUNE DISEASES” (CENTRE NATIONAL DE LA RECHERECHE SCIENTIFIQUE, priority 2011, published 2015).
# Where a SMILES comes first, the peptide text is derived from it. [ ]: non-standard residue; d: D form. Met(O) = CS(=O)CC[C@H](N)C(=O)O; pS = N[C@@H](COP(=O)(O)O)C(=O)O
# Key:
# [1] = target: T1, HSC70 protein (Bos taurus, UniProt P19120); assay: BIAcore binding of peptides to immobilized HSC70; design: species or system bovine; conditions: for Rmax / KA / Kd / kd: 25° C., 1:1 Langmuir model; for Rmax: global fit; for KA / Kd / kd: same value given at each analyte concentration
# T1 construct: purchased Stressgen
# T1 sequence (P19120 whole entry): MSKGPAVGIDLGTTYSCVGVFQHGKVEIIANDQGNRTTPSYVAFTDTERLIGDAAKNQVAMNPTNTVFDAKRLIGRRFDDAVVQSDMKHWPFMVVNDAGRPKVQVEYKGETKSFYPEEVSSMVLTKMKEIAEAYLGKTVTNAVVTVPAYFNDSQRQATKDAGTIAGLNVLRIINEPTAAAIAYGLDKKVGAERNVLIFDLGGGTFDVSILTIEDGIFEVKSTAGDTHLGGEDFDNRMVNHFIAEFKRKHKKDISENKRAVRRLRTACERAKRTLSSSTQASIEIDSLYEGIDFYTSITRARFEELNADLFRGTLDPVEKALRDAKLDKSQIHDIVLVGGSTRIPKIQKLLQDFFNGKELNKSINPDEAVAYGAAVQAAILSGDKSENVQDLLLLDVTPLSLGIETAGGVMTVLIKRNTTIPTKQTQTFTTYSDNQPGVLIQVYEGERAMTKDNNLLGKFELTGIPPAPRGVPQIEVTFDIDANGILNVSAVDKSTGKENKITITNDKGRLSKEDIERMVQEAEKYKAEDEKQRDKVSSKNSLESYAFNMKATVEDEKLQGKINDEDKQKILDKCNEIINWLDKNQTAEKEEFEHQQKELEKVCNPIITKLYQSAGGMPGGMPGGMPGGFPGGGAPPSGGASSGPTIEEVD
# Protocol: BIAcore 3000 system (Biacore AB) was used to evaluate the binding of P140 peptides to HSC70 protein (Page et al., 2009, and 2011). Sensor chip CMS, surfactant P20, amine coupling kit containing N-hydroxysuccinimide (NHS) and N-ethyl-N′-dimethylaminopropyl carbodiimide (EDC), 2-(2-pyridinyldithio)ethaneamine (PDEA) and ethanolamine were from Biacore AB. Biosensor assays were performed with HBS-EP buffer as running buffer (10 mM HEPES, 150 mM NaCl, 3 mM EDTA, 0.005% surfactant P20, pH 7.4). The compounds were diluted in the running buffer. The sensor chip surface was regenerated after each experiment by injecting 10 μL of 10 mM HCl. Recombinant bovine HSC70 (Stressgen) was immobilized on flow cells of a CMS sensor chip through its thiol groups using 35 μL PDEA in 50 mM borate buffer, pH 8.3 on the NHS/EDC-activated matrix. Then, 35 μL of HSC70 (100 μg/mL in formate buffer, pH 4.3) were injected until a response of 13,000 response units (RU) corresponding to 13 ng/mm^2 of HSC70 was immobilized. Twenty μL of a 50 mM cysteine/1 M NaCl solution was used to saturate unoccupied sites on the chip. The direct binding measurement of P140 peptides to HSC70 was carried out at 25° C. with a constant flow rate of 20 μL/min. P140 peptide and analogues were injected in the flux at different concentrations for 3 min, followed by a dissociation phase of 3 min. The kinetic parameters were calculated using the BIAeval 3.1 software on a personal computer. Analysis was performed using the simple 1:1 Langmuir binding model. The specific binding profiles were obtained after subtracting the response signal from the control empty channel and from blank-buffer injection. The fitting to each model was judged by the χ^2 value and randomness of residue distribution compared to the theoretical model.
# [2] = Stability of the peptides at 37° C. in 10% (v/v) mannitol solution, HPLC peak area of intact peptide; format: physicochemical; conditions: for 95% of stability (predicted): time to 95% stability from linear equation; for Linear equation of stability (%) versus days: slope: y = stability %, x = days; for Stability (%): 10% mannitol
# Protocol: The stability of the peptide SEQ ID NO: 2 in which the serine at position 10 is phosphorylated and the methionine at position 4 is oxidized (P140(MO)), and the peptide SEQ ID NO: 1 in which the serine at position 10 is phosphorylated (P140) was measured at 37° C., in a solution of 10% (v/v) mannitol. For each peptide, 3 concentrations have been tested: 200, 100 and 50 μg/mL.
# At the indicated time, the integrity of P140 and P140(MO) peptides was measured in saline by high-performance liquid chromatography from the area of the peak corresponding to the intact peptide.
# Stability is measured by using the HPLC peak surface.
# [3] = test system: MRL/lpr mice; assay: Survival analysis in MRL/lpr lupus mice; format: in vivo, mouse; conditions: female MRL/lpr mice, intravenous, from 5 weeks of age; NaCl control = 25 weeks
# Protocol: (§1) Statistical tests were performed using GraphPad Prism version 5.0. The two-way ANOVA test was used to analyze statistical significance of proteinuria differences between control and peptide-treated groups of mice. Survival of control and P140 analogue-treated female MRL/lpr mice was analyzed by the Kaplan-Meier method, and the significance of differences was determined by the log-rank test. For the other variables, statistical significance was assessed using the Student's t-test. p values less than 0.05 were considered significant.
# It has been determined that this mouse strain carries a mutation in the fas gene. Also, the MRL/lpr is a useful model to study behavioural and cognitive deficits found in autoimmune diseases and the efficacy of immunosuppressive agents [Monneaux et al., 2003, Eur. J. Immunol. 33,287-296].
# Five-week-old female MRL/lpr mice received P140 or peptide P140(MO) intravenously as described (Monneaux et al., 2003, Eur. J. Immunol. 33,287-296). All experimental protocols were carried out with the approval of the local Institutional Animal Care and Use Committee (CREMEAS). As control, mice were injected with NaCl.
# Twenty mice were used for each peptide or NaCl.
# [4] = test system: MRL/lpr mice; assay: Proteinuria analysis in MRL/lpr mice (Albustix); format: in vivo, mouse; conditions: fresh urine, Albustix score over time (FIG. 3)
# Protocol: as §1
# Proteinuria of the above mice was measured in fresh urine using Albustix (Bayer Diagnostics) and was semi-quantitatively estimated according to a […] recommended by the manufacturer (no proteinuria=0; traces=1; 1+=2; 2+=3; 3+=4; 4+=5).
# [5] = test system: MRL/lpr mice; assay: Cellularity analysis (peripheral blood leucocytes) in MRL/lpr mice; format: in vivo, mouse; conditions: 100 μg/100 μL single injection, peripheral blood 5 days after, efficacy at least similar to P140
# Protocol: MRL/lpr mice were injected with 100 μg/100 μL of P140 or P140(MO) and cellularity (peripheral blood) was studied 5 days after this unique injection. The count includes all the leucocytes. In view of the low number of tested mice, a non parametric statistical test has been realised Mann-Whitney).
SMILES,Rmax ([1]; BIAcore) [RU],KA ([1]; BIAcore) [M⁻¹],Kd ([1]; BIAcore) [µM],kd ([1]; BIAcore) [s⁻¹],Req ([1]; peptide 1.56 μM) [RU],kobs ([1]; peptide 1.56 μM) [s⁻¹],Req ([1]; peptide 3.12 μM) [RU],kobs ([1]; peptide 3.12 μM) [s⁻¹],Req ([1]; peptide 6.25 μM) [RU],kobs ([1]; peptide 6.25 μM) [s⁻¹],Req ([1]; peptide 12.5 μM) [RU],kobs ([1]; peptide 12.5 μM) [s⁻¹],Req ([1]; peptide 25 μM) [RU],kobs ([1]; peptide 25 μM) [s⁻¹],"95% of stability (predicted) ([2]; 50 μg/mL, 37° C.)","Linear equation of stability (%) versus days: slope ([2]; 50 μg/mL, 37° C.)","Stability (%) ([2]; 50 μg/mL, day 0, 37° C.)","Stability (%) ([2]; 50 μg/mL, day 20, 37° C.)","Stability (%) ([2]; 50 μg/mL, day 40, 37° C.)","Stability (%) ([2]; 50 μg/mL, day 100, 37° C.)",other results
CC[C@H](C)[C@H](NC(=O)[C@H](Cc1ccccc1)NC(=O)[C@H](C)NC(=O)[C@H](Cc1ccc(O)cc1)NC(=O)CNC(=O)[C@H](CCCNC(=N)N)NC(=O)[C@@H]1CCCN1C(=O)[C@H](CCCCN)NC(=O)CNC(=O)[C@H](COP(=O)(O)O)NC(=O)[C@H](CCCNC(=N)N)NC(=O)[C@H](CCCCN)NC(=O)[C@H](CO)NC(=O)[C@H](Cc1ccc(O)cc1)NC(=O)[C@@H](NC(=O)[C@H](CCSC)NC(=O)[C@H](Cc1c[nH]cn1)NC(=O)[C@@H](NC(=O)[C@@H](N)CCCNC(=N)N)[C@@H](C)CC)C(C)C)C(=O)N[C@@H](CCC(=O)O)C(=O)N[C@@H](Cc1ccc(O)cc1)C(=O)O [Compound P140] (H-RIHMVYSKR[pS]GKPRGYAFIEY-OH),83.3,144000,6.94,0.00312,15.3,0.00382,25.8,0.00452,39.5,0.00593,53.6,0.00874,65.2,0.0144,1 months,y = −0.099x +,100,95.5,93.2,89.6,"Stability (%) ([2]; 50 μg/mL, day 60, 37° C.): 91.5%; Stability (%) ([2]; 50 μg/mL, day 80, 37° C.): 90.3%; 95% of stability (predicted) ([2]; 100 μg/mL, 37° C.): 2 months; Linear equation of stability (%) versus days: slope ([2]; 100 μg/mL, 37° C.): y = −0.0612x +; Stability (%) ([2]; 100 μg/mL, day 0, 37° C.): 100%; Stability (%) ([2]; 100 μg/mL, day 20, 37° C.): 97.5%; Stability (%) ([2]; 100 μg/mL, day 40, 37° C.): 96.2%; Stability (%) ([2]; 100 μg/mL, day 60, 37° C.): 95.5%; Stability (%) ([2]; 100 μg/mL, day 80, 37° C.): 94.5%; Stability (%) ([2]; 100 μg/mL, day 100, 37° C.): 93.4%; 95% of stability (predicted) ([2]; 200 μg/mL, 37° C.): 6 months; Linear equation of stability (%) versus days: slope ([2]; 200 μg/mL, 37° C.): y = −0.0238x +; Stability (%) ([2]; 200 μg/mL, day 0, 37° C.): 100%; Stability (%) ([2]; 200 μg/mL, day 20, 37° C.): 98.7%; Stability (%) ([2]; 200 μg/mL, day 40, 37° C.): 98.5%; Stability (%) ([2]; 200 μg/mL, day 60, 37° C.): 97.9%; Stability (%) ([2]; 200 μg/mL, day 80, 37° C.): 97.6%; Stability (%) ([2]; 200 μg/mL, day 100, 37° C.): 97.4%; Median survival [3]: 29 weeks"
"CC[C@H](C)[C@H](NC(=O)[C@H](Cc1ccccc1)NC(=O)[C@H](C)NC(=O)[C@H](Cc1ccc(O)cc1)NC(=O)CNC(=O)[C@H](CCCNC(=N)N)NC(=O)[C@@H]1CCCN1C(=O)[C@H](CCCCN)NC(=O)CNC(=O)[C@H](COP(=O)(O)O)NC(=O)[C@H](CCCNC(=N)N)NC(=O)[C@H](CCCCN)NC(=O)[C@H](CO)NC(=O)[C@H](Cc1ccc(O)cc1)NC(=O)[C@@H](NC(=O)[C@H](CC[S+](C)[O-])NC(=O)[C@H](Cc1c[nH]cn1)NC(=O)[C@@H](NC(=O)[C@@H](N)CCCNC(=N)N)[C@@H](C)CC)C(C)C)C(=O)N[C@@H](CCC(=O)O)C(=O)N[C@@H](Cc1ccc(O)cc1)C(=O)O (some centres unmarked) [P140(MO), RIHM(O)VYSKRS(PO3H2)GKPRGYAFIEY] (H-RIH[Met(O)]VYSKR[pS]GKPRGYAFIEY-OH)",39,524000,1.91,0.0022,17.6,0.004,24.2,0.0058,29.9,0.0094,33.9,0.0166,36.3,0.031,2 years,y = −0.0064x +,100,100,100,99.4,"Affinity for HSC70 compared with P140 (non-oxidized counterpart) ([1]; BIAcore): not statistically different; Linear equation of stability (%) versus days: slope ([2]; 100 μg/mL, 37° C.): y = −0.0064x +; Stability (%) ([2]; 100 μg/mL, day 0, 37° C.): 100%; Stability (%) ([2]; 100 μg/mL, day 20, 37° C.): 99.1%; Stability (%) ([2]; 100 μg/mL, day 40, 37° C.): 99.5%; Stability (%) ([2]; 100 μg/mL, day 100, 37° C.): 99.1%; 95% of stability (predicted) ([2]; 200 μg/mL, 37° C.): ∞; Stability (%) ([2]; 200 μg/mL, day 0, 37° C.): 100%; Stability (%) ([2]; 200 μg/mL, day 20, 37° C.): 100%; Stability (%) ([2]; 200 μg/mL, day 40, 37° C.): 100%; Stability (%) ([2]; 200 μg/mL, day 100, 37° C.): 100%; Stability over 100 days (in words) ([2]; all tested concentrations (50 to 200 μg/ml), 37° C.): stable; Median survival [3]: > 40 weeks; Proteinuria compared to untreated mice [4]: less important and appears lately; Peripheral hypercellularity [5]: able to decrease peripheral hypercellularity"
